Reference: the supplement of paper PMC10627819

Columns and labels:
[1] = test system: B. subtilis 168; assay: fitness (endpoint OD595 vs no drug) (fraction); higher = more growth
In short: (§1)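 Plates with 384 wells were inoculated at OD595 0.01 using 30 µl of TSB, LB Lennox or CY, or 55 µl for S. pneumoniae. Incubation was at 37 °C, with OD595 measured every 30 min for 14 h. Fitness is the stationary-phase transition optical density over the robust mean of no-drug control wells, after first-reading background subtraction; it is capped at 1.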

[2] = test system: S. pneumoniae D39V; assay: as above
In short: as §1

[3] = test system: S. aureus Newman; assay: as above
In short: as §1

[4] = test system: S. aureus DSM 20231; assay: as above
In short: as §1

[5] = test system: B. subtilis 168; assay: Bliss interaction score (quartile over a dose matrix) (fitness difference); higher = more antagonism (negative = synergy)
In short: (§2)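 The Bliss score takes observed fitness and subtracts the expected fitness, calculated as a product of single-drug fitness values. Those single-drug values were inferred from the combination data. Fitness is OD595 at entry into stationary phase divided by the plate's robust no-drug mean, capped at 1, and the score is summarised by quartiles across technical, biological and donor/recipient replicates.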

[6] = test system: S. pneumoniae D39V; assay: as above
In short: as §2

[7] = test system: S. aureus Newman; assay: as above
In short: as §2

[8] = test system: S. aureus DSM 20231; assay: as above
In short: as §2
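Throughout, for Bliss interaction score (quartile over a dose matrix): first quartile when negative (synergy) and third quartile when positive (antagonism).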

CO/N=C(\C(=O)N[C@@H]1C(=O)N2C(C(=O)O)=C(COC(C)=O)CS[C@H]12)c1csc(N)n1 [Cefotaxime] + O=C(O[C@@H]1Cc2c(O)cc(O)cc2O[C@@H]1c1cc(O)c(O)c(O)c1)c1cc(O)c(O)c(O)c1 [EGCG]
fitness, one replicate
Settings | first compound 0.00775 µg/mL | first compound 0.0155 µg/mL | first compound 0.031 µg/mL | first compound 0.039 µg/mL | first compound 0.0625 µg/mL | first compound 0.125 µg/mL | first compound 0.25 µg/mL | first compound 0.312 µg/mL
[1], partner 6.25 µg/mL | 0.847 | 0.723 | 0.588 | – | 0.532 | 0.462 | 0.403 | –
[1], partner 12.5 µg/mL | 0.466 | 0.341 | 0.284 | – | 0.59 | 0.521 | 0.475 | –
[1], partner 25 µg/mL | 0.192 | 0.129 | 0.133 | – | 0.547 | 0.484 | 0.32 | –
[3], partner 12.5 µg/mL | – | – | – | 0.751 | – | – | – | 0.317
[3], partner 25 µg/mL | – | – | – | 0.786 | – | – | – | 0.268
[3], partner 50 µg/mL | – | – | – | 0.726 | – | – | – | 0.14

fitness
Settings | partner 6.25 µg/mL | partner 12.5 µg/mL | partner 25 µg/mL | partner 50 µg/mL
[1], first compound 0.5 µg/mL | 0.265 | 0.293 | 0.103 | –
[1], first compound 1 µg/mL | 0.119 | 0.166 | 0.0631 | –
[1], first compound 2 µg/mL | 0.0879 | 0.142 | 0.0481 | –
[2], first compound 0.0018 µg/mL | – | 0.977 | 0.978 | 0.939
[2], first compound 0.0035 µg/mL | – | 0.989 | ≥ 1 | 0.955
[2], first compound 0.007 µg/mL | – | 0.889 | 0.914 | 0.883
[3], first compound 0.078 µg/mL | – | 0.594 | 0.615 | 0.573
[3], first compound 0.156 µg/mL | – | 0.574 | 0.391 | 0.564
[3], first compound 0.625 µg/mL | – | 0.198 | 0.071 | 0.0397
[3], first compound 1.25 µg/mL | – | 0.0285 | 0.0144 | 0.0286
[3], first compound 2.5 µg/mL | – | 0.0123 | 0.0423 | 0.0268
[4], first compound 0.039 µg/mL | – | 0.696 | 0.702 | 0.651
[4], first compound 0.078 µg/mL | – | 0.655 | 0.704 | 0.625
[4], first compound 0.156 µg/mL | – | 0.685 | 0.697 | 0.746
[4], first compound 0.312 µg/mL | – | 0.736 | 0.622 | –

Settings | Bliss interaction score
[5] | 0.112
[6] | 0.07
[7] | 0.0329
[8] | 0.0466
